Experimental data published in patent US20020061862A1, “Inducible nitric oxide synthase for treatment of disease” (University of Pittsburgh of the Commonwealth System of …, priority 1992, published 2002).

Experiments:
3T3-iNOS cells = test: NO2- production (iNOS activity) in transfected 3T3-iNOS cells; assay type: cell-based, murine; settings: MTX 12.5 μM
Experimental: Cells were passaged to 6 well plates at a density of 1×10^5 cells/well 24 h prior to transfection. For 3T3 cells, each well of cells was transfected with a mixture of 1 μg plasmid DNA and 6 μg of Lipofectamine (GIBCO) in OPTIMEM-I media for 5 h. For RSMC, a ratio of 1 μg DNA to 7 μl of Lipofectamine was used. Following the incubation period, the transfection solution was removed and normal growth medium replaced. The transfection efficiency was estimated by X-gal staining of pIEP-lacZ transfected cells. All studies were performed at 24-72 h post-transfection.
Twenty four hours following transfection, the cell medium was then replaced with fresh medium and the cells were cultured for an additional 24 h at which time the supernatants were assayed for accumulated NO2 using the Griess reaction (Geller, et al., 1993, Proc. Natl. Acad. Sci. USA: 90:522-526). Measurements were also performed in the presence of L-NMA (1 mM), BH4 (100 μM), and methotrexate (MTX 12.5 μM). The cells were lysed with 0.1 M NaOH and the protein concentration was quantified with the BCA protein assay. To assess the requirement for compression of GTPCH and iNOS in the same cell, 3T3 cells were transfected with either pIEPlacZ or pCIS-GTPCH. […] Cells were allowed to attach overnight and NO2− levels were measured 24 h later.

[1] = system: ecNOS mRNA and protein in SPAEC; test: Northern and Western blot for ecNOS expression in SPAEC; assay type: cell-based, sheep; settings: 1 mM, 6 h, versus SPAEC treated with the parent compound
Experimental: Aliquots (20 μg) of RNA were electrophoresed on a 0.9% agarose gel and blotted to GeneScreen (DuPontNEN; Boston, Mass.). After prehybridization, the membranes were hybridized to a DNA probe as described (Geller, et al., 1993, Proc. Natl. Acad. Sci. USA 90:522-526). A 2.3 kb human iNOS cDNA fragment served as the iNOS probe while a 4.1 kb human endothelial cNOS cDNA fragment served as the ecNOS probe. 18S rRNA served as a control for relative RNA loading.
The cells were lysed by three freeze-thaw cycles, and the cytosolic fraction was isolated by centrifugation at 100,000×g for 60 min at 4° C. as previously described (Luss, et al., 1994, Biochem. Biophys. Res. Comm. 204-2: 635-640). Protein concentrations were measured with the BCA protein assay (Pierce; Rockford, Ill.). For whole cell preparations, a similar procedure was performed without the centrifugation step.
Cell cytosols (100μg) were electrophoresed through an 8% SDS-polyacrylamide gel and transferred to nitrocellulose membranes (Schleicher Schuell; Keene, N.H.) as described (Laemmli, 1970, Nature 227: 680-685). […]

[2] = system: sheep pulmonary artery endothelial cells (SPAEC); assay type: cell-based; settings: L-NMA 0.5 mM, BH4 100 μM

CN(Cc1cnc2nc(N)nc(N)c2n1)c1ccc(C(=O)N[C@@H](CCC(=O)O)C(=O)O)cc1 [MTX, methotrexate]
reduction of iNOS activity recovered by BH4 supplementation (3T3-iNOS cells; 3T3-iNOS, FIG. 23): over 5 fold
reduction of iNOS activity (3T3-iNOS cells; pCIS-GTPCH transfected 3T3iNOS cells): 50%

CC(=O)N[C@H](C(=O)O)C(C)(C)SN=O [SNAP, S-nitroso-N-acetyl-penicillamine]
increase in ecNOS mRNA [1]: 1.5 fold

CNC(=N)NCCC[C@H](N)C(=O)O [L-NMA, N^G-monomethyl-L-arginine]
effect of agent added to culture medium on nitrogen oxide synthesis / NO2^− production of SPAEC/DFG-iNOS-Neo [2]: inhibited
